Experiments:
Assay type in all cases: in vivo
corn (Zea mays) = test: Test C greenhouse herbicide test, pre- and postemergence
Summary of the method: (§1)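 Preemergence: seeds sown in a loam soil–sand blend and sprayed with test chemicals in a non-phytotoxic solvent mixture containing surfactant. Postemergence: plants grown in peat-based medium and treated at 2 to 18 cm (1- to 4-leaf stage). After 13 to 15 d in a greenhouse, injury was visually rated 0–100 against controls.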

[1] = system: waterhemp (common waterhemp, Amaranthus rudis); test: as above
Summary of the method: as §1

[2] = system: ragweed (common ragweed, Ambrosia elatior); test: as above
Summary of the method: as §1

[3] = system: galium (catchweed bedstraw, Galium aparine); test: as above
Summary of the method: as §1

[4] = system: foxtail, giant (giant foxtail, Setaria faberii); test: as above
Summary of the method: as §1

[5] = system: oilseed rape (Brassica napus); test: as above
Summary of the method: as §1

[6] = system: velvetleaf (Abutilon theophrasti); test: as above
Summary of the method: as §1

[7] = system: pigweed (Amaranthus retroflexus); test: as above
Summary of the method: as §1

[8] = system: wheat (winter wheat, Triticum aestivum); test: as above
Summary of the method: as §1

[9] = system: johnsongrass (Sorghum halepense); test: as above
Summary of the method: as §1

[10] = system: blackgrass (Alopecurus myosuroides); test: as above
Summary of the method: as §1

[11] = system: morningglory (Ipomoea coccinea); test: as above
Summary of the method: as §1

soybean (Glycine max) = test: as above
Summary of the method: as §1

[12] = system: barnyardgrass (Echinochloa crus-galli); test: as above
Summary of the method: as §1

[13] = system: crabgrass, large (large crabgrass, Digitaria sanguinalis); test: as above
Summary of the method: as §1

kochia (Kochia scoparia) = test: Test C greenhouse herbicide test, postemergence; settings: Postemergence
Summary of the method: (§2)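 Postemergence foliar treatment, 1- to 4-leaf stage (2–18 cm), peat/vermiculite medium; greenhouse 13–15 d; visual rating vs controls, 0 = no effect, 100 = complete control; dash = no result.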

[14] = system: oat, wild (wild oat, Avena fatua); test: Test C greenhouse herbicide test, postemergence; settings: Postemergence
Summary of the method: as §2

[15] = Postemergence, 31 g ai/ha, scale 0 to 100 (0 no effect, 100 complete control)
[16] = Postemergence, 125 g ai/ha, scale 0 to 100, 0 is no effect, 100 is complete control
[17] = Postemergence, 250 g ai/ha, scale 0 to 100, 0 no effect, 100 complete control, 13 to 15 d
[18] = Preemergence, 31 g ai/ha, scale 0 to 100, 0 is no effect, 100 is complete control
[19] = Preemergence, 62 g ai/ha, scale 0 to 100, 0 is no effect, 100 is complete control
[20] = Preemergence, 125 g ai/ha, scale 0 to 100, 0 is no effect, 100 is complete control
[21] = Preemergence, 250 g ai/ha, scale 0 to 100 (0 no effect, 100 complete control)
[22] = postemergence, 62 g ai/ha, scale 0 to 100, 0 no effect, 100 complete control
[23] = 31 g ai/ha, scale 0 to 100 (0 no effect, 100 complete control)
[24] = 125 g ai/ha, scale 0 to 100, 0 is no effect, 100 is complete control
[25] = 250 g ai/ha, scale 0 to 100, 0 no effect, 100 complete control, 13 to 15 d

## Cc1ccc2ccccc2c1-c1c(O)c(Cl)nn(C)c1=O [Compound 125]
Corn (Zea mays); [15]
  Plant response rating, Corn: 5
Corn (Zea mays); [16]
  Plant response rating, Corn: 5
Corn (Zea mays); [17]
  Plant response rating, Corn: 5
Corn (Zea mays); [18]
  Plant response rating, Corn: 0
Corn (Zea mays); [19]
  Plant response rating, Corn: 0
Corn (Zea mays); [20]
  Plant response rating, Corn: 20
Corn (Zea mays); [21]
  Corn plant response rating: 55
Corn (Zea mays); [22]
  Corn plant response rating: 0
[1]; [15]
  Plant response rating, Waterhemp: 85
[1]; [16]
  Plant response rating, Waterhemp: 98
[1]; [17]
  Plant response rating, Waterhemp: 100
[1]; [18]
  Plant response rating, Waterhemp: 98
[1]; [19]
  Plant response rating, Waterhemp: 100
[1]; [20]
  Plant response rating, Waterhemp: 100
[1]; [21]
  Waterhemp plant response rating: 100
[2]; [15]
  Plant response rating, Ragweed: 95
[2]; [16]
  Plant response rating, Ragweed: 98
[2]; [17]
  Plant response rating, Ragweed: 98
[2]; [18]
  Plant response rating, Ragweed: 95
[2]; [19]
  Plant response rating, Ragweed: 100
[2]; [20]
  Plant response rating, Ragweed: 98
[2]; [21]
  Ragweed plant response rating: 100
[3]; [15]
  Plant response rating, Galium: 95
[3]; [16]
  Plant response rating, Galium: 95
[3]; [17]
  Plant response rating, Galium: 95
[3]; [18]
  Plant response rating, Galium: 100
[3]; [19]
  Plant response rating, Galium: 100
[3]; [20]
  Plant response rating, Galium: 100
[3]; [21]
  Galium plant response rating: 100
[4]; [15]
  Plant response rating, Foxtail, Giant: 70
[4]; [16]
  Plant response rating, Foxtail, Giant: 95
[4]; [17]
  Plant response rating, Foxtail, Giant: 98
[4]; [18]
  Plant response rating, Foxtail, Giant: 95
[4]; [19]
  Plant response rating, Foxtail, Giant: 100
[4]; [20]
  Plant response rating, Foxtail, Giant: 98
[4]; [21]
  Foxtail, Giant plant response rating: 100
[5]; [15]
  Plant response rating, Oilseed Rape: 0
[5]; [16]
  Plant response rating, Oilseed Rape: 5
[5]; [17]
  Plant response rating, Oilseed Rape: 10
[5]; [18]
  Plant response rating, Oilseed Rape: 85
[5]; [19]
  Plant response rating, Oilseed Rape: 0
[5]; [20]
  Plant response rating, Oilseed Rape: 85
[5]; [21]
  Oilseed Rape plant response rating: 100
[6]; [15]
  Plant response rating, Velvetleaf: 85
[6]; [16]
  Plant response rating, Velvetleaf: 95
[6]; [17]
  Plant response rating, Velvetleaf: 98
[6]; [18]
  Plant response rating, Velvetleaf: 95
[6]; [19]
  Plant response rating, Velvetleaf: 100
[6]; [20]
  Plant response rating, Velvetleaf: 100
[6]; [21]
  Velvetleaf plant response rating: 100
[7]; [15]
  Plant response rating, Pigweed: 95
[7]; [16]
  Plant response rating, Pigweed: 98
[7]; [17]
  Plant response rating, Pigweed: 98
[7]; [18]
  Plant response rating, Pigweed: 100
[7]; [19]
  Plant response rating, Pigweed: 100
[7]; [20]
  Plant response rating, Pigweed: 100
[7]; [21]
  Pigweed plant response rating: 100
[8]; [15]
  Plant response rating, Wheat: 0
[8]; [16]
  Plant response rating, Wheat: 30
[8]; [17]
  Plant response rating, Wheat: 35
[8]; [18]
  Plant response rating, Wheat: 40
[8]; [19]
  Plant response rating, Wheat: 45
[8]; [20]
  Plant response rating, Wheat: 90
[8]; [21]
  Wheat plant response rating: 90
[9]; [15]
  Plant response rating, Johnsongrass: 5
[9]; [16]
  Plant response rating, Johnsongrass: 20
[9]; [17]
  Plant response rating, Johnsongrass: 20
[9]; [18]
  Plant response rating, Johnsongrass: 40
[9]; [19]
  Plant response rating, Johnsongrass: 55
[9]; [20]
  Plant response rating, Johnsongrass: 60
[9]; [21]
  Johnsongrass plant response rating: 70
[10]; [15]
  Plant response rating, Blackgrass: 20
[10]; [16]
  Plant response rating, Blackgrass: 60
[10]; [17]
  Plant response rating, Blackgrass: 80
[10]; [18]
  Plant response rating, Blackgrass: 50
[10]; [19]
  Plant response rating, Blackgrass: 55
[10]; [20]
  Plant response rating, Blackgrass: 55
[10]; [21]
  Blackgrass plant response rating: 90
[10]; [22]
  Blackgrass plant response rating: 45
[11]; [15]
  Plant response rating, Morningglory: 95
[11]; [16]
  Plant response rating, Morningglory: 100
[11]; [17]
  Plant response rating, Morningglory: 100
[11]; [18]
  Plant response rating, Morningglory: 90
[11]; [19]
  Plant response rating, Morningglory: 95
[11]; [20]
  Plant response rating, Morningglory: 95
[11]; [21]
  Morningglory plant response rating: 98
Soybean (Glycine max); [15]
  Plant response rating, Soybean: 0
Soybean (Glycine max); [16]
  Plant response rating, Soybean: 10
Soybean (Glycine max); [17]
  Plant response rating, Soybean: 10
Soybean (Glycine max); [18]
  Plant response rating, Soybean: 0
Soybean (Glycine max); [19]
  Plant response rating, Soybean: 5
Soybean (Glycine max); [20]
  Plant response rating, Soybean: 30
Soybean (Glycine max); [21]
  Soybean plant response rating: 35
[12]; [15]
  Plant response rating, Barnyardgrass: 35
[12]; [16]
  Plant response rating, Barnyardgrass: 80
[12]; [17]
  Plant response rating, Barnyardgrass: 70
[12]; [18]
  Plant response rating, Barnyardgrass: 55
[12]; [19]
  Plant response rating, Barnyardgrass: 70
[12]; [20]
  Plant response rating, Barnyardgrass: 90
[12]; [21]
  Barnyardgrass plant response rating: 98
[12]; [22]
  Barnyardgrass plant response rating: 40
[13]; [15]
  Plant response rating, Crabgrass, Large: 25
[13]; [16]
  Plant response rating, Crabgrass, Large: 40
[13]; [17]
  Plant response rating, Crabgrass, Large: 60
[13]; [18]
  Plant response rating, Crabgrass, Large: 40
[13]; [19]
  Plant response rating, Crabgrass, Large: 45
[13]; [20]
  Plant response rating, Crabgrass, Large: 75
[13]; [21]
  Crabgrass, Large plant response rating: 98
[13]; [22]
  Crabgrass, Large plant response rating: 35
Kochia (Kochia scoparia); [23]
  Plant response rating, Kochia: 85
Kochia (Kochia scoparia); [24]
  Plant response rating, Kochia: 90
Kochia (Kochia scoparia); [25]
  Plant response rating, Kochia: 90
[14]; [23]
  Plant response rating, Oat, Wild: 85
[14]; [24]
  Plant response rating, Oat, Wild: 95
[14]; [25]
  Plant response rating, Oat, Wild: 95

Reference: US10597388B2, “Pyridazinone herbicides” (FMC CORPORATION, priority 2014, dated 2020)
